The text below walks through data of PubChem BioAssay (NCI).

Structures are written as SMILES.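 Cells were grown in 96-well plates and exposed to each compound for 48 hours at five concentrations; endpoints were interpolated linearly between bracketing concentrations, or set to the highest concentration if not reached. Abbreviation: GI50, concentration required for 50% inhibition of growth. TGI is the concentration that stops growth completely.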 Where only a bound is given, the exact number is not on record here.

Among the test systems are SW-620 colon; HS 578T breast; SF-268 CNS; COLO 205 colon; NCI-H460 lung; SK-MEL-2 melanoma; RPMI-8226 leukemia; SK-MEL-28 melanoma.
What all share (assay): NCI tumour cell line growth inhibition, 48 h

Turning to `CCN(Cc1c(F)cccc1F)c1ccc(CO)c(Cl)c1`, the GI50 is 0.139 µM in the assay on SW-620 colon; 20.4 µM in the assay with HS 578T breast; 24.8 µM with SF-268 CNS; 0.387 µM in the assay on COLO 205 colon; 0.0663 µM with NCI-H460 lung; 14.6 µM in the assay with SK-MEL-2 melanoma. The GI50 in the assay with RPMI-8226 leukemia was 1.1 µM; in the assay with SK-MEL-28 melanoma it was 19.1 µM. Also, the TGI was more than 90.4 µM in the assay with SW-620 colon; 77.4 µM with HS 578T breast; more than 77.3 µM in the assay on SF-268 CNS; 1.61 µM in the assay with COLO 205 colon; 0.612 µM with NCI-H460 lung; 31.8 µM in the assay with SK-MEL-2 melanoma. The TGI with RPMI-8226 leukemia is 41.4 µM; with SK-MEL-28 melanoma, 52.6 µM.

On to `C=C1C(=O)O[C@H]2[C@H]1CC/C(COC(=O)c1cc3cc(OC)ccc3[nH]1)=C\CC[C@@]1(C)O[C@@H]21`, for which the GI50 in the assay with SW-620 colon was 0.647 µM; with HS 578T breast, 3.09 µM; in the assay on SF-268 CNS, 1.66 µM; in the assay with COLO 205 colon, 1.18 µM; in the assay on NCI-H460 lung it was 1.83 µM; in the assay with SK-MEL-2 melanoma, 1.6 µM. Moreover, the GI50 with RPMI-8226 leukemia is 0.509 µM; with SK-MEL-28 melanoma, 1.23 µM. The TGI with SW-620 colon was 2.34 µM; in the assay on HS 578T breast it was 11.8 µM; in the assay with SF-268 CNS, 3.65 µM; in the assay on COLO 205 colon it was 2.72 µM; with NCI-H460 lung, 3.84 µM; in the assay on SK-MEL-2 melanoma, 3.05 µM. In addition, the TGI was found to be 3.87 µM with RPMI-8226 leukemia and 2.61 µM in the assay on SK-MEL-28 melanoma.

As to `COc1ccc(NC2=C(Br)C(=O)C(C)=C(C)C2=O)cc1`, the GI50 in the assay on SW-620 colon was 2.07 µM; in the assay with HS 578T breast it was 11.8 µM; in the assay on SF-268 CNS it was 11.9 µM; in the assay on COLO 205 colon, 21.3 µM; with NCI-H460 lung, 18.8 µM; with SK-MEL-2 melanoma, 11.4 µM. Besides, the GI50 with RPMI-8226 leukemia is 2.21 µM; with SK-MEL-28 melanoma it was 2.3 µM. In addition, the TGI in the assay on SW-620 colon was 4.54 µM; in the assay on HS 578T breast, 57.5 µM; in the assay with SF-268 CNS, 28.2 µM; with COLO 205 colon, 51 µM; in the assay with NCI-H460 lung it was 42.6 µM; in the assay on SK-MEL-2 melanoma, 28.3 µM. The TGI was 5.01 µM with RPMI-8226 leukemia and 4.76 µM in the assay with SK-MEL-28 melanoma.

Turning to `COC(=O)C(Cc1ccccc1)N/C=C\C(=O)c1ccc(Cl)cc1` (configuration not stated), the GI50 with SW-620 colon was 31.7 µM; in the assay with HS 578T breast it was 25 µM; in the assay with SF-268 CNS, 31.6 µM; with COLO 205 colon it was 32.5 µM; with NCI-H460 lung, 20.5 µM; with SK-MEL-2 melanoma it was 59.9 µM. For the same molecule, the figures for the GI50 in the assay on RPMI-8226 leukemia and with SK-MEL-28 melanoma were 36.7 µM and 45.4 µM, respectively. In addition, the TGI with SW-620 colon is 97.2 µM; in the assay on HS 578T breast, 63.8 µM; with SF-268 CNS, 67.4 µM; with COLO 205 colon, more than 100 µM; with NCI-H460 lung, 48.2 µM; in the assay with SK-MEL-2 melanoma, more than 100 µM. The TGI with RPMI-8226 leukemia and in the assay on SK-MEL-28 melanoma was more than 100 µM in each case.

Regarding `COC(=O)NC/C=C\c1nc(CC/C=C\C(=O)OC2CC3CC(=O)O[C@@H](/C=C/CC(C)C)C[C@@H]4CCC(C)C(C[C@@H](OC)CC(C2)O3)O4)co1` (some centres not stated), the GI50 in the assay on SW-620 colon was less than 0.01 µM; in the assay with HS 578T breast, 32.8 µM; with SF-268 CNS it was less than 0.01 µM; in the assay on COLO 205 colon it was less than 0.01 µM; with NCI-H460 lung it was less than 0.01 µM; in the assay on SK-MEL-2 melanoma, 12.8 µM. Moreover, the GI50 in the assay with SK-MEL-28 melanoma is 26.5 µM. Also, the TGI with SW-620 colon is more than 100 µM; in the assay with HS 578T breast, more than 100 µM; in the assay with SF-268 CNS it was 84 µM; in the assay with COLO 205 colon it was 98.4 µM; with NCI-H460 lung it was more than 100 µM; in the assay with SK-MEL-2 melanoma, 94.1 µM. In addition, in the assay on SK-MEL-28 melanoma, the TGI was more than 100 µM.

In the case of `O=C(Nc1cc(-c2ccccc2)[nH]n1)c1ccc(Cl)cc1`, the GI50 in the assay with HS 578T breast was 3.96 µM; in the assay on SF-268 CNS it was 28.6 µM; in the assay with COLO 205 colon, more than 100 µM; in the assay with NCI-H460 lung, 3.58 µM; in the assay on SK-MEL-2 melanoma it was 6.97 µM; with RPMI-8226 leukemia, more than 100 µM. In addition, in the assay on SK-MEL-28 melanoma, the GI50 is more than 100 µM. Further, the TGI was 65.9 µM with HS 578T breast; more than 100 µM in the assay on SF-268 CNS; more than 100 µM in the assay with COLO 205 colon; more than 100 µM with NCI-H460 lung; more than 100 µM in the assay on SK-MEL-2 melanoma; more than 100 µM in the assay with RPMI-8226 leukemia. Also, the TGI with SK-MEL-28 melanoma was more than 100 µM.

For `CCCSc1cc(Cl)nc(N)n1`, the GI50 in the assay on SW-620 colon, in the assay on SF-268 CNS, in the assay with COLO 205 colon, in the assay with NCI-H460 lung, with SK-MEL-2 melanoma and with RPMI-8226 leukemia was more than 100 µM throughout. In addition, the GI50 in the assay on SK-MEL-28 melanoma was more than 100 µM. Besides, the TGI with SW-620 colon, in the assay with SF-268 CNS, with COLO 205 colon, with NCI-H460 lung, in the assay on SK-MEL-2 melanoma and with RPMI-8226 leukemia was more than 100 µM throughout. Moreover, the TGI in the assay on SK-MEL-28 melanoma was more than 100 µM.

As for `COc1cc(/C=C2\CC3C4CC=C5CC(N6CCCC6)CC[C@]5(C)C4CC[C@]3(C)C2OC(C)=O)ccc1OCCN1CCCC1` (some centres not stated), the GI50 in the assay with HS 578T breast is 2.38 µM; with SF-268 CNS, 2.53 µM; in the assay on COLO 205 colon, 3.61 µM; with NCI-H460 lung, 1.9 µM; with SK-MEL-2 melanoma, 2.09 µM; in the assay with RPMI-8226 leukemia, 1.67 µM. Further, the GI50 with SK-MEL-28 melanoma was 2.51 µM. In addition, the TGI with HS 578T breast came out at 4.54 µM; in the assay with SF-268 CNS, 6.04 µM; in the assay with COLO 205 colon, 12.9 µM; in the assay with NCI-H460 lung, 3.92 µM; in the assay with SK-MEL-2 melanoma it was 3.7 µM; with RPMI-8226 leukemia, 3.82 µM. Moreover, the TGI in the assay with SK-MEL-28 melanoma turned out to be 5.42 µM.

Consider `CCCS(=O)(=O)c1nc(NC2CC2)cc(-c2ccc3c(ccn3C3CC(C)(C)NC(C)(C)C3)c2)n1`, for which the GI50 in the assay on HS 578T breast is 2.1 µM; with SF-268 CNS it was 1.88 µM; with COLO 205 colon, 1.84 µM; with NCI-H460 lung, 1.8 µM; in the assay on SK-MEL-2 melanoma, 1.88 µM; with RPMI-8226 leukemia, 2 µM. Besides, the TGI with HS 578T breast is 4.93 µM; in the assay on SF-268 CNS, 3.89 µM; with COLO 205 colon, 3.39 µM; in the assay on NCI-H460 lung it was 3.55 µM; with SK-MEL-2 melanoma, 3.41 µM; with RPMI-8226 leukemia it was 5.27 µM.

As to `Cc1ccc2/c(=C/c3ccc(N(C)C)cc3)c3cc(-c4ccccc4)[n+](C)n3c2c1`, the GI50 was 0.186 µM with SW-620 colon, 0.035 µM with HS 578T breast, 0.025 µM with NCI-H460 lung and 0.146 µM with SK-MEL-28 melanoma. Moreover, the TGI in the assay with SW-620 colon stood at 1.51 µM; in the assay with HS 578T breast it was 2.89 µM; in the assay with NCI-H460 lung it was 1.38 µM; in the assay with SK-MEL-28 melanoma, 3.7 µM.

Consider `Oc1c(Br)cc(CN(Cc2cc(Br)c(O)c(Br)c2)C2CCCCC2)cc1Br`, for which the TGI in the assay with SW-620 colon, in the assay with HS 578T breast, in the assay with SF-268 CNS, in the assay on COLO 205 colon, in the assay on SK-MEL-2 melanoma and in the assay on RPMI-8226 leukemia was more than 100 µM throughout. For the same molecule, the TGI in the assay on SK-MEL-28 melanoma was more than 100 µM.
